Results: PubChem BioAssay AID1259407 (Chemical Carcinogenesis Research Information System (CCRIS), 2018)
Activity calls are given as the source filed them. No rule for the calls is given here.

Tested on: CCRIS mutagenicity, Ames/micronucleus/aberration tests
Test: CCRIS mutagenicity studies

Measured: mutagenic call

N#CCCN
inactive: Test System: AMES SALMONELLA TYPHIMURIUM, Strain/Indicator: TA98, Metabolic Activation: HAMSTER, LIVER, S-9, AROCLOR 1254, Method: STANDARD PLATE inactive; negative | Test System: AMES SALMONELLA TYPHIMURIUM, Strain/Indicator: TA98, Metabolic Activation: NONE, Method: STANDARD PLATE inactive; negative | Test System: AMES SALMONELLA TYPHIMURIUM, Strain/Indicator: TA98, Metabolic Activation: RAT, LIVER, S-9, AROCLOR 1254, Method: STANDARD PLATE inactive; negative | Test System: AMES SALMONELLA TYPHIMURIUM, Strain/Indicator: TA100, Metabolic Activation: HAMSTER, LIVER, S-9, AROCLOR 1254, Method: STANDARD PLATE inactive; negative | Test System: AMES SALMONELLA TYPHIMURIUM, Strain/Indicator: TA100, Metabolic Activation: NONE, Method: STANDARD PLATE inactive; negative | Test System: AMES SALMONELLA TYPHIMURIUM, Strain/Indicator: TA100, Metabolic Activation: RAT, LIVER, S-9, AROCLOR 1254, Method: STANDARD PLATE inactive; negative | Test System: AMES SALMONELLA TYPHIMURIUM, Strain/Indicator: TA1535, Metabolic Activation: HAMSTER, LIVER, S-9, AROCLOR 1254, Method: STANDARD PLATE inactive; negative | Test System: AMES SALMONELLA TYPHIMURIUM, Strain/Indicator: TA1535, Metabolic Activation: NONE, Method: STANDARD PLATE inactive; negative | Test System: AMES SALMONELLA TYPHIMURIUM, Strain/Indicator: TA1535, Metabolic Activation: RAT, LIVER, S-9, AROCLOR 1254, Method: STANDARD PLATE inactive; negative | Test System: AMES SALMONELLA TYPHIMURIUM, Strain/Indicator: TA1537, Metabolic Activation: HAMSTER, LIVER, S-9, AROCLOR 1254, Method: STANDARD PLATE inactive; negative | Test System: AMES SALMONELLA TYPHIMURIUM, Strain/Indicator: TA1537, Metabolic Activation: NONE, Method: STANDARD PLATE inactive; negative | Test System: AMES SALMONELLA TYPHIMURIUM, Strain/Indicator: TA1537, Metabolic Activation: RAT, LIVER, S-9, AROCLOR 1254, Method: STANDARD PLATE inactive; negative | Test System: AMES SALMONELLA TYPHIMURIUM, Strain/Indicator: TA1538, Metabolic Activation: HAMSTER, LIVER, S-9, AROCLOR 1254, Method: STANDARD PLATE inactive; negative | Test System: AMES SALMONELLA TYPHIMURIUM, Strain/Indicator: TA1538, Metabolic Activation: NONE, Method: STANDARD PLATE inactive; negative | Test System: AMES SALMONELLA TYPHIMURIUM, Strain/Indicator: TA1538, Metabolic Activation: RAT, LIVER, S-9, AROCLOR 1254, Method: STANDARD PLATE inactive; negative | Test System: Mouse lymphoma, Strain/Indicator: L5178Y (tk+/tk-), Metabolic Activation: None, Method: Suspension/plate inactive; inconclusive (previous evaluation negative) | Test System: Mouse lymphoma, Strain/Indicator: L5178Y (tk+/tk-), Metabolic Activation: Rat, Liver, S-9, Aroclor 1254, Method: Suspension/plate inactive; negative
